Data as given in patent publication US12427106B2, “Elastic sheet with function of re-activating endometrial basal layer in uterine cavity and forming method thereof” (YIPURUN (SHANGHAI) BIOTECHNOLOGY CO., LTD., priority 2018, dated 2025).

Experiments:
[1] = cited from earlier work
[2] = blood concentration in vivo of subjects after implantation or oral dose
Experimental: The blood concentrations of subjects were measured per 2 weeks, and the trend in vivo matched the release in vitro despite the few of data points.
It can be seen from the FIG. that the blood concentration in vivo is consistent with the release in vitro trend, thus the treatment in vivo can be adjusted by the release in vitro.
The following table gives a comparison of a relationship between the oral dose and the blood concentration in vivo and another relationship between the released drug of the elastic sheet and the blood concentration in vivo: […]

[3] = blood concentration in vivo of New Zealand rabbits after implantation or oral dose
Experimental: New Zealand rabbits within 10 weeks after the implantation. […] The blood concentrations of subjects were measured per 2 weeks, and the trend in vivo matched the release in vitro despite the few of data points. […] New Zealand rabbits within 10 weeks after the implantation. […] The blood concentrations of subjects were measured per 2 weeks, and the trend in vivo matched the release in vitro despite the few of data points. […] It can be seen from the FIG. that the blood concentration in vivo is consistent with the release in vitro trend, thus the treatment in vivo can be adjusted by the release in vitro. The following table gives a comparison of a relationship between the oral dose and the blood concentration in vivo and another relationship between the released drug of the elastic sheet and the blood concentration in vivo: Following table 10 gives a comparison of a relationship between the oral dose and the blood concentration in vivo and another relationship between the released drug of the elastic sheet and the blood concentration in vivo: […]

Row | SMILES | increase of the serum concentration of estradiol (E2) ([1]; oral administration of 4 mg (2 mg bid)) [pg/mL] | absorption effect of vaginal administration relative to oral administration ([1]; vaginal versus oral) [times] | Blood concentration ([2]; Oral dose 1000 μg/d) [nM] | Blood concentration ([2]; Oral dose 2000 μg/d) [nM] | Blood concentration ([2]; Oral dose 3000 μg/d) [nM] | Blood concentration ([2]; Oral dose 4000 μg/d) [nM] | Blood concentration ([3]; Oral dose 1000 μg/d) [nM] | Blood concentration ([3]; Oral dose 2000 μg/d) [nM] | Blood concentration ([3]; Oral dose 3000 μg/d) [nM]
1 | CCCCC(=O)O[C@H]1CC[C@H]2[C@@H]3CCc4cc(O)ccc4[C@H]3CC[C@]12C [estradiol valerate] | 211.89 ± 57.40 | 4 to 8 |  |  |  |  |  |  | 
2 | C[C@]12CC[C@@H]3c4ccc(O)cc4CC[C@H]3[C@@H]1CC[C@@H]2O [estradiol] |  |  | 0.1112 | 0.2558 | 0.4985 | 0.9893 | 0.1112 | 0.2558 | 0.4985
